In the case of N#Cc1ccc([N+](=O)[O-])cc1, the solubility (mole fraction) (in ethanol, 278.15 K) is reported as 0.00255, the solubility (mole fraction) (in ethanol, 283.15 K) is reported as 0.00302 and the solubility (mole fraction) (in ethanol, 288.15 K) is reported as 0.00376. It also gave a solubility (mole fraction) (in ethanol, 293.15 K) of 0.00454, a solubility (mole fraction) (in ethanol, 298.15 K) of 0.00556 and a solubility (mole fraction) (in ethanol, 303.15 K) of 0.00672. The solubility (mole fraction) (in ethanol, 308.15 K) was 0.00821, the solubility (mole fraction) (in ethanol, 313.15 K) was 0.00984 and the solubility (mole fraction) (in ethanol, 318.15 K) was 0.0116. The solubility (mole fraction) (in ethyl acetate, 278.15 K) was 0.0404, the solubility (mole fraction) (in ethyl acetate, 283.15 K) was 0.0463 and the solubility (mole fraction) (in ethyl acetate, 288.15 K) was 0.0538. For the same molecule, the solubility (mole fraction) (in ethyl acetate, 293.15 K) was 0.0619, the solubility (mole fraction) (in ethyl acetate, 298.15 K) was 0.0721 and the solubility (mole fraction) (in ethyl acetate, 303.15 K) was 0.0842. For the same molecule, the solubility (mole fraction) (in ethyl acetate, 308.15 K) was 0.1, the solubility (mole fraction) (in ethyl acetate, 313.15 K) was 0.119 and the solubility (mole fraction) (in ethyl acetate, 318.15 K) was 0.142. For the same molecule, the solubility (mole fraction) (in isopropanol, 278.15 K) was 0.00162, the solubility (mole fraction) (in isopropanol, 283.15 K) was 0.00196 and the solubility (mole fraction) (in isopropanol, 288.15 K) was 0.00246. For the same molecule, the solubility (mole fraction) (in isopropanol, 293.15 K) was 0.00304, the solubility (mole fraction) (in isopropanol, 298.15 K) was 0.00374 and the solubility (mole fraction) (in isopropanol, 303.15 K) was 0.0046. The solubility (mole fraction) (in isopropanol, 308.15 K) was 0.00572, the solubility (mole fraction) (in isopropanol, 313.15 K) was 0.00708 and the solubility (mole fraction) (in isopropanol, 318.15 K) was 0.00877. It also gave a solubility (mole fraction) (in methanol, 278.15 K) of 0.0032, a solubility (mole fraction) (in methanol, 283.15 K) of 0.0037 and a solubility (mole fraction) (in methanol, 288.15 K) of 0.00448. For the same molecule, the solubility (mole fraction) (in methanol, 293.15 K) was 0.00541, the solubility (mole fraction) (in methanol, 298.15 K) was 0.00652 and the solubility (mole fraction) (in methanol, 303.15 K) was 0.00788. For the same molecule, the solubility (mole fraction) (in methanol, 308.15 K) was 0.00955, the solubility (mole fraction) (in methanol, 313.15 K) was 0.0115 and the solubility (mole fraction) (in methanol, 318.15 K) was 0.0135. For the same molecule, the solubility (mole fraction) (in n-propanol, 278.15 K) was 0.00227, the solubility (mole fraction) (in n-propanol, 283.15 K) was 0.00271 and the solubility (mole fraction) (in n-propanol, 288.15 K) was 0.0033. The solubility (mole fraction) (in n-propanol, 293.15 K) was 0.00407, the solubility (mole fraction) (in n-propanol, 298.15 K) was 0.00505 and the solubility (mole fraction) (in n-propanol, 303.15 K) was 0.00619. The solubility (mole fraction) (in n-propanol, 308.15 K) was 0.00758, the solubility (mole fraction) (in n-propanol, 313.15 K) was 0.00908 and the solubility (mole fraction) (in n-propanol, 318.15 K) was 0.0108.
